Source: patent publication US20100144853A1, “NOVEL COMBINED ADMINISTRATION” (priority 2008, published 2010)

What was measured:
Lipase from Hog Pancreas [1] = assay: Stability of COMPOUND A with Lipase, Procedure B (premix of COMPOUND B and COMPOUND A, then Lipase); assay type: in vitro ADME; details: 10 min, 0.55 mg/mL (11 U/mL) Lipase
Procedure: 240 mg Lipase (Lipase from Hog Pancreas, 20.6 U/mg Lipase, CAS No. 9001-62-1, Fluka, Art. No. 62300) were weighed into a vial and dissolved by stirring in 10 mL phosphate buffered saline solution pH 6.5. Any undissolved material was removed by centrifugation during 5 min at 5000 rpm. The supernatant was used for the experiments and diluted with PBS to obtain the Lipase at the final concentration of 0.55 mg/mL.
Procedure B (Premix of COMPOUND B and COMPOUND A, Followed by Addition of Lipase):
100 μL of drug solution (stock A) were mixed with 0, 12, 25 or 50 μL esterase inhibitor solution (stock B) and 100, 88, 75 or 50 μL of FeSSIF concentrate (Lecithin37.5 mM and Sodium taurocholate 150 mM) were added to make up 200 μL of a solution with COMPOUND B concentrations of 0, 12, 25 or 50 μg/mL. At time zero, 800 μL of Lipase in phosphate buffered saline solution (from stock C to obtain final enzyme concentrations of 0.55 mg/mL) were added. The reaction mixture was incubated at 37° C. and stopped after 10 minutes by diluting one part of the reaction mixture with 3 parts Isopropanol.

Lipase from Hog Pancreas [2] = assay: Stability of COMPOUND A with Lipase, Procedure C (premix of COMPOUND A and Lipase, then COMPOUND B); assay type: in vitro ADME; details: 0.55 mg/mL Lipase
Procedure: Procedure C (Premix of COMPOUND A and Lipase, Followed by Addition of COMPOUND B): Remark: Final COMPOUND B concentration: 3 μg/ml 220 μL of drug solution (stock A) and 220 μL of FeSSIF concentrate (Lecithin 37.5 mM and Sodium taurocholate 150 mM) were mixed. At time zero the reaction was started by addition of 1700 μl of Lipase in phosphate buffered saline solution (from stock C to obtain a final enzyme concentration of 0.55 mg/mL). The mixture was incubated at 37° C. and after 5 min, a 200 μL sample was taken for HPLC analysis. Then 60 μL of COMPOUND B solution (stock B) previously diluted 1:10 in phosphate buffered saline solution (corresponds to 100 μg/mL COMPOUND B) was added and as a function of time, samples of 200 μL were taken, diluted immediately with 600 μL of isopropanol and centrifuged for 5 min at 3000 rpm. The supernatant was analyzed by HPLC. 1700 μl of Lipase in phosphate buffered saline solution (from stock C to obtain a final enzyme concentration of 0.55 mg/mL) were mixed with 220 μL of FeSSIF concentrate and at time zero 220 μL of drug solution (stock A) was added. After 7 min of incubation, a 200 μL sample was taken, 60 μL of diluted COMPOUND B solution (stock B) was added and continued as described for the 1st experiment.

CCC(CC)CC1(C(=O)Nc2ccccc2SC(=O)C(C)C)CCCCC1 [COMPOUND A, thioisobutyric acid S-(2-{[1-(2-ethyl-butyl)-cyclohexanecarbonyl]-amino}-phenyl)ester]
Concentration of COMPOUND A (Lipase from Hog Pancreas [1]; COMPOUND B 0 μg/mL): 23000 ng/mL
Concentration of COMPOUND A (Lipase from Hog Pancreas [1]; COMPOUND B 12 μg/mL): 46400 ng/mL
Concentration of COMPOUND A (Lipase from Hog Pancreas [1]; COMPOUND B 25 μg/mL): 46500 ng/mL
Concentration of COMPOUND A (Lipase from Hog Pancreas [1]; COMPOUND B 50 μg/mL): 46100 ng/mL
Concentration of COMPOUND A (Lipase from Hog Pancreas [2]; +3 μg/mL COMPOUND B at T = 5 min, time 0 min): 45300 ng/mL
Concentration of COMPOUND A (Lipase from Hog Pancreas [2]; +3 μg/mL COMPOUND B at T = 5 min, time 5 min): 41500 ng/mL
Concentration of COMPOUND A (Lipase from Hog Pancreas [2]; +3 μg/mL COMPOUND B at T = 5 min, time 10 min): 39100 ng/mL
Concentration of COMPOUND A (Lipase from Hog Pancreas [2]; +3 μg/mL COMPOUND B at T = 5 min, time 15 min): 39300 ng/mL
Concentration of COMPOUND A (Lipase from Hog Pancreas [2]; +3 μg/mL COMPOUND B at T = 5 min, time 20 min): 39100 ng/mL
Concentration of COMPOUND A (Lipase from Hog Pancreas [2]; +3 μg/mL COMPOUND B at T = 5 min, time 25 min): 39300 ng/mL
Concentration of COMPOUND A (Lipase from Hog Pancreas [2]; +3 μg/mL COMPOUND B at T = 5 min, time 30 min): 39300 ng/mL
Concentration of COMPOUND A (Lipase from Hog Pancreas [2]; +3 μg/mL COMPOUND B at T = 7 min, time 0 min): 45300 ng/mL
Concentration of COMPOUND A (Lipase from Hog Pancreas [2]; +3 μg/mL COMPOUND B at T = 7 min, time 5 min): 40400 ng/mL
Concentration of COMPOUND A (Lipase from Hog Pancreas [2]; +3 μg/mL COMPOUND B at T = 7 min, time 10 min): 38400 ng/mL
Concentration of COMPOUND A (Lipase from Hog Pancreas [2]; +3 μg/mL COMPOUND B at T = 7 min, time 15 min): 38200 ng/mL
Concentration of COMPOUND A (Lipase from Hog Pancreas [2]; +3 μg/mL COMPOUND B at T = 7 min, time 20 min): 37900 ng/mL
Concentration of COMPOUND A (Lipase from Hog Pancreas [2]; +3 μg/mL COMPOUND B at T = 7 min, time 25 min): 37800 ng/mL
Concentration of COMPOUND A (Lipase from Hog Pancreas [2]; +3 μg/mL COMPOUND B at T = 7 min, time 30 min): 37900 ng/mL
